Data on seven compounds can be found in US10287267B2, “Isoquinolin-3-yl carboxamides and preparation and use thereof” (Samumed, LLC, priority 2016, dated 2019).

The target of one assay is recombinant GSK3β kinase (Homo sapiens (Human), UniProt P49841). Kind of assay: GSK3β kinase assay (Ser/Thr 09 peptide Z-lyte FRET).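 Also: kinase activity read as coumarin to fluorescein emission ratio, 11-point threefold dilutions from 10 µM to 0.0003 µM in duplicate, unphosphorylated and phosphorylated peptide as 0% and 100% controls.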 Format: biochemical. The note with it: 46 μM ATP, 1 h room temperature.
For assay [1], the system named is α-smooth muscle actin (αSMA) positive LL29 cells. Kind of assay: Inhibition of fibrotic process: αSMA in TGF-β1 treated primary human fibroblasts from IPF patients.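 As to all read-outs here: controls were TGF-β1 stimulated wells with DMSO vehicle (positive) and cells given DMSO alone (negative), cultured in F12 medium with 1% fetal bovine serum.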 It counts as cell-based. To be noted: Homo sapiens, Fibroblast; for EC50: 96 h, Table 8, LL29 fibroblasts from IPF patients, TGF-β1 20 ng/mL, 4 days, dose-response 10 μM to 0.94 nM; for inhibition at 10 µM: read-out: percent value in parentheses beside EC50 >10 μM.

For assay [2], the system named is Wnt pathway (Sp5-Luc reporter, TCF/LEF binding sites) in SW480 colon carcinoma cells. Put plainly: Screening assay for Wnt activity: Sp5-Luc reporter gene assay.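 As to all read-outs here: firefly luciferase luminescence read in stably transduced SW480 cells carrying the Sp5 promoter reporter with eight TCF/LEF sites, compounds given in 0.1% DMSO final.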 It counts as cell-based, human. The note with it: Homo sapiens; for inhibition at 10 µM: SW480, read-out: percent inhibition at 10 μM; for EC50: Sp5-Luc reporter, SW480 cells, 36 to 48 hours.
Method: The screening assay for Wnt activity is described as follows.
Following incubation, 15 μl of BriteLite Plus luminescence reagent (Perkin Elmer) was added to each well of the 384-well assay plates. The plates were placed on an orbital shaker for 2 min and then luminescence was quantified using the Envision (Perkin Elmer) plate reader.
For assay [3], the target named is recombinant DYRK1A kinase (Homo sapiens (Human), UniProt Q13627). Put plainly: DYRK1A kinase assay (Ser/Thr 18 peptide Z-lyte FRET).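 Also: Read-out is the coumarin to fluorescein emission ratio, referenced to unphosphorylated (0%) and phosphorylated (100%) Ser/Thr 18 peptide controls, values from dose-response curves by non-linear regression.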 It counts as biochemical. To be noted: 30 μM ATP, 1 h room temperature.
The test system of another assay is IL-6. Kind of assay: IL-6 inhibition in LPS-stimulated human peripheral blood mononuclear cells (HTRF).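 As to all read-outs here: IL-6 detected by HTRF with an XL665- and Cryptate-labelled anti-IL-6 antibody pair, samples run in duplicate, EC50 obtained from a four-parameter Levenberg-Marquardt curve fit.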 The note with it: Homo sapiens, PBMC; for inhibition at 10 µM: read-out: percent value in parentheses beside EC50 >10 μM; for EC50: Table 9, huPBMCs, LPS 50 ng/mL, 22 hours, dose-response starting from 10 μM. It counts as cell-based. Background: In TR-FRET formats the signal depends on donor and acceptor labels being close together.

Assay [4] deals with Tau phosphorylation at Ser396 (pSer396). Kind of assay: Tau phosphorylation assay (pSer396 ELISA / western blot) in SH-SY5Y cells.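 Also: EC50 for reduction of Tau pSer396 in lysed cells, measured by colorimetric ELISA or chemiluminescent western blot, both using the same pSer396 antibody.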 It counts as cell-based, human. The note with it: Homo sapiens; SH-SY5Y cells, overnight (16-18 h) exposure; read-out: pSer396 Tau EC50.
Assay [5] has as its system SW480 colon carcinoma cells. Put plainly: Cell viability assay (CellTiter-Glo). It counts as cell-based, human. The note with it: Homo sapiens; for EC50: 96 h, SW480 cells, CellTiter-Glo, four days incubation; for inhibition at 10 µM: SW480, read-out: percent inhibition at 10 μM. (In general: ATP-based viability assays read luminescence as a measure of living cells.)

By EC50 is commonly meant the concentration needed to bring the measured effect to its halfway point.

recombinant GSK3β kinase, sequence (P49841 whole entry): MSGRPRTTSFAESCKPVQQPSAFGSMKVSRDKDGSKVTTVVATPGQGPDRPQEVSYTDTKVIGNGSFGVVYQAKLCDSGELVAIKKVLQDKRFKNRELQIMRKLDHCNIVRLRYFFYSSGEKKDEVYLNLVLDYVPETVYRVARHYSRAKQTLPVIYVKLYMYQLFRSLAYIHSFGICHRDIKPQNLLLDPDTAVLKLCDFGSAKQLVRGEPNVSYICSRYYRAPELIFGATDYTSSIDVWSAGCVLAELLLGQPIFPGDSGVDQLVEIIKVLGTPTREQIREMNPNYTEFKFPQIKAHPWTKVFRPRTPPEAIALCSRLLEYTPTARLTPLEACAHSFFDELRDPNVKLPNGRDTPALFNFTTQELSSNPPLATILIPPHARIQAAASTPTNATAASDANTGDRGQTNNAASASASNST
Method for IL-6: After 22 hour incubation, a mixture of anti-IL6 XL665 and anti-IL-6 Cryptate diluted in reconstitution buffer (Catalog #62IL6PEC, Cisbio Inc., Bedford, Mass.) was added to each well. […] All samples were processed in duplicate. […] EC50 was determined using software generated by Dotmatics Limited (Windhill Bishops Stortford Herts, UK) using the Levenberg-Marquardt 4 parameter fitting procedure with finite different gradients.

Take `CC(C)CN1CCC(F)(C(=O)Nc2cc3cc(-c4cnn5c4CN(CCF)CC5)ccc3cn2)CC1` [Compound 1023, 4-Fluoro-N-(6-(5-(2-fluoroethyl)-4,5,6,7-tetrahydropyrazolo[1,5-a]pyrazin-3-yl)isoquinolin-3-yl)-1-isobutylpiperidine-4-carboxamide]: the 50% effective concentration (EC50) at recombinant GSK3β kinase was 838 nM; in assay [1] it was 4670 nM; in assay [2] it was above 10000 nM; in assay [3] it was 8.7 nM; in the assay with IL-6, above 10000 nM; in assay [4], 1800 nM. For the same compound, the EC50 in assay [5] was above 10000 nM. Also, the inhibition at 10 µM came to 38.2% in assay [2], 20.7% with IL-6 and 39.9% in assay [5].
Consider `C[C@@H](F)CN1CCC(C(=O)Nc2cc3cc(-c4cnn(C)c4)ccc3cn2)CC1` [Compound 313, (R)-1-(2-Fluoropropyl)-N-(6-(1-methyl-1H-pyrazol-4-yl)isoquinolin-3-yl) piperidine-4-carboxamide], for which the concentration giving a half-maximal response (EC50) on recombinant GSK3β kinase is 39 nM; in assay [1], 105 nM; in assay [2], 577 nM; in assay [3], 2.5 nM; in the assay with IL-6, 1010 nM; in assay [4] it was 330 nM. For the same compound, the response in assay [5] was half-maximal at 711 nM (EC50).
Consider `O=C(Nc1cc2cc(-c3cncs3)ccc2cn1)[C@H]1CC[C@H](CN2CC(F)C2)CC1` [Compound 711, trans-4-((3-Fluoroazetidin-1-yl)methyl)-N-(6-(thiazol-5-yl)isoquinolin-3-yl)cyclohexane-1-carboxamide], for which the EC50 at recombinant GSK3β kinase turned out to be 67 nM; in assay [1] it was 540 nM; in assay [2], 703 nM; in assay [3] it was 1 nM; in the assay with IL-6 it was 1080 nM; in assay [4], 443 nM. The compound also registered a concentration for a half-maximal effect (EC50) in assay [5] of 706 nM.
On to `CN1CCN(C[C@H]2CC[C@H](C(=O)Nc3cc4cc(-c5cnn(C)c5)ccc4cn3)CC2)CC1` [Compound 14, trans-N-(6-(1-Methyl-1H-pyrazol-4-yl)isoquinolin-3-yl)-4-((4-methylpiperazin-1-yl)methyl)cyclohexane-1-carboxamide], for which the EC50 turned out to be 59 nM at recombinant GSK3β kinase; 35 nM in assay [1]; 354 nM in assay [2]; 1.5 nM in assay [3]; 643 nM in the assay on IL-6; 408 nM in assay [4]. For the same compound, the midpoint of the response in assay [5], the EC50, lay at 898 nM.
Take `CCN1CCN(CC(=O)Nc2cc3cc(-c4cnn(C)c4)ccc3cn2)CC1` [Compound 351, 2-(4-Ethylpiperazin-1-yl)-N-(6-(1-methyl-1H-pyrazol-4-yl)isoquinolin-3-yl) acetamide]: the EC50 at recombinant GSK3β kinase was 130 nM; in assay [1], above 10000 nM; in assay [2], 2520 nM; in assay [3] it was 13.6 nM; with IL-6, 3010 nM; in assay [4] it was 846 nM. In assay [5], this compound registered an EC50 of 6880 nM. The inhibition at 10 µM in assay [1] amounted to 38.8%.
Consider `O=C(Nc1cc2cc(-c3cnc4n3CCNC4)ccc2cn1)[C@H]1CCCN1` [Compound 987, (R)—N-(6-(5,6,7,8-Tetrahydroimidazo[1,2-a]pyrazin-3-yl)isoquinolin-3-yl) pyrrolidine-2-carboxamide], for which the EC50 at recombinant GSK3β kinase is 2320 nM; in assay [1] it was above 10000 nM; in assay [2], above 10000 nM; in assay [3] it was 42.8 nM; with IL-6, above 10000 nM; in assay [4], above 10000 nM. In assay [5], this compound displayed an EC50 above 10000 nM. The inhibition at 10 µM in assay [1] turned out to be 42%; in assay [2], 10.7%; in the assay with IL-6 it was 6.5%; in assay [5], 10.6%.
For the compound `Cn1cc(-c2ccc3cnc(NC(=O)CN4CC[C@H](F)C4)cc3c2)cn1` [Compound 69, (S)-2-(3-Fluoropyrrolidin-1-yl)-N-(6-(1-methyl-1H-pyrazol-4-yl)isoquinolin-3-yl)acetamide], the EC50 was determined as 13 nM on recombinant GSK3β kinase; 394 nM in assay [1]; 3700 nM in assay [2]; 6.2 nM in assay [3]; 2160 nM with IL-6; 383 nM in assay [4]. The compound also returned an EC50 in assay [5] of 3930 nM.
